Molecules are shown by their SMILES. A value given as a limit tells only on which side of the number the result lay.

In general, IC50 refers to the point on the concentration scale where inhibition reaches its midpoint. In general, ED50 refers to the dose at which the effect has come halfway, by size or by number of responders. A high value points to a need for a large dose.

Experiment [1] has as its target T1, hASIC1a (Homo sapiens, UniProt P78348).
T1 construct: expressed in transfected cells; host or cells: Xenopus laevis oocytes, nuclear microinjection of an expression vector such as pCDNA3
T1 sequence (P78348 1-528): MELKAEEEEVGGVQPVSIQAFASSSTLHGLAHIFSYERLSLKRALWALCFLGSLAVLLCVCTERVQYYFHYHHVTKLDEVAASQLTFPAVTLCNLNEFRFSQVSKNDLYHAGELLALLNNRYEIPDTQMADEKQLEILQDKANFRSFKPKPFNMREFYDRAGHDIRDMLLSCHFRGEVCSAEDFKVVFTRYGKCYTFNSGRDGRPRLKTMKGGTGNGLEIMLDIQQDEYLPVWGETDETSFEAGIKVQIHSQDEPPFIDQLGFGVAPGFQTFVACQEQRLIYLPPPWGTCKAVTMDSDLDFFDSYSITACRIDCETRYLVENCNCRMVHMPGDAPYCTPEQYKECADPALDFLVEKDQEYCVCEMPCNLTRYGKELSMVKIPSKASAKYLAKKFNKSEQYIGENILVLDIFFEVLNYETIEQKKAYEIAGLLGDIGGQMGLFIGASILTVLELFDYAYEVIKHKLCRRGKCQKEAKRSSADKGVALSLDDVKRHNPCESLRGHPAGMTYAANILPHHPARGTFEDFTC
Kind of experiment: Two-electrode voltage clamp in Xenopus laevis oocytes expressing gated ion channels (Xo, Example 3). Format: cell-based. The following applies: for inhibition at 50 µM: read-out: % inh. at 50 μM (Xo). The procedure: Two-electrode voltage clamp electrophysiological assays in Xenopus laevis oocytes expressing gated ion channels are performed as follows:
Oocytes are surgically removed from adult Xenopus laevis and treated for 2 h at room temperature with 1 mg/ml type I collagenase (Sigma) in Barth's solution under mild agitation. Selected oocytes at stage IV-V are defolliculated manually before nuclear microinjection of 2.5-5 ng of a suitable expression vector, such as pCDNA3, comprising the nucleotide sequence encoding a gated ion channel subunit protein. In such an experiment, the oocytes express homomultimeric proton-gated ion channels on their surface. In an alternate experiment, one, two, three or more vectors comprising the coding sequences for distinct gated ion channel subunits are co-injected in the oocyte nuclei. In the latter case, oocytes express heteromultimeric proton-gated ion channels. […] Once impaled with the microelectrodes, oocytes are continuously superfused at 10-12 ml/min with a modified Ringer's solution containing 97 mM NaCl, 2 mM KCl, 1.8 mM CaCl2, and 10 mM HEPES brought to pH 7.4 with NaOH (Control Ringer). Test Ringer solution is prepared by replacing HEPES with MES and adjusting the pH to the desired acidic value. Compounds of the present invention are prepared in both the Control and Test Ringer solutions and applied to oocytes at room temperature through a computer-controlled switching valve system. […] Similarly, recordings can also be acquired in an automated multichannel oocytes system as the OpusExpress™ (Molecular Devices, Sunnyvale, USA).
On the technique in general: In two-electrode clamp one electrode senses voltage and the other passes current.

Experiment [2] deals with T1, hASIC1a. Kind of experiment: Whole cell patch clamp in HEK293 cells transfected with hASIC1a (Example 2). It counts as cell-based. The following applies: six point dose-response, whole cell patch clamp (FIG. 1B), read-out: IC50, inhibition of acid-induced hASIC1a activity. As to the method:
Another example of an in vitro assessment method consists of using mammalian heterologous expression systems, which are known to the skilled in the art, and include a variety of mammalian cell lines such as COS, HEK, e.g., HEK293and/or CHO, cells. Cell lines are transfected with gated ion channel(s) and used to perform electrophysiology as follows:
All experiments are performed at room temperature (20-25° C.) in voltage clamp using conventional whole cell patch clamp methods (Neher, E., et al. (1978) Pfluegers Arch 375:219-228).
The amplifier used is the EPC-9 (HEKA-electronics, Lambrect, Germany) run by a Macintosh G3 computer via an ITC-16 interface. Experimental conditions are set with the Pulse-software accompanying the amplifier. […]
Coverslips with the cells are transferred to a 15 μl experimental chamber mounted on the stage of an inverted microscope (IMT-2, Olympus) supplied with Nomarski optics. […] The cells are held at a holding voltage of −60 mV and at the start of each experiment the current is continuously measured for 45 s to ensure a stable baseline. […] Current amplitudes are measured at the peak of the responses, and effect of the compounds is calculated as the amplitude at compound equilibrium divided by the amplitude of the current evoked by the pulse just before the compound is included. […]

The test system of experiment [3] is thermal hyperalgesia from carrageenan-induced paw inflammation. Kind of experiment: Carrageenan model, thermal hyperalgesia (Hargreaves' assay). It counts as in vivo, rat. The procedure:
Acute inflammatory hyperalgesia is induced in rats by unilateral injection of […] of a 3% solution of 1-carrageenan into the plantar surface of the left hind paw 2-4 h prior to testing. Thermal nociceptive thresholds are determined according to the method described elsewhere (Hargreaves et al., 1988). Briefly, through the glass surface, a radiant heat source (8 V, 50 W projector bulb) is focused onto the plantar surface of the hind paw. The rat's paw-withdrawal latency to this stimulus is recorded to the nearest 0.1 s. Each latency score is an average of three trials, which are separated by at least 5 min. In all rats, both the injured and uninjured hind paws are similarly tested, allowing direct comparisons between inflamed and non-inflamed paws.

Where [4] appears, read: Xenopus laevis oocytes, two-electrode voltage clamp.
The mark [5] stands for this setting: Xenopus laevis oocytes, two-electrode voltage clamp, Table 1, read-out: IC50 (Xo).

Consider `CCN1CCc2c(-c3ccccc3)cc3c(c2C1)NC(=O)C3SC` (stereo not drawn) [Compound 1], for which the inhibition at 50 µM on hASIC1a [1] (setting [4]) is 25 to 45%.
Still for that read-out and setting: with `CCN1CCc2c(-c3ccccc3)cc3c(c2C1)NC(=O)C3` [Compound 2] the figure was less than 25%.
`CCN1CCc2c(-c3ccccc3)cc3c(c2C1)NC(=O)C3=CNC` [Compound 3]: at hASIC1a [1] (setting [4]), the inhibition at 50 µM was less than 25%.
Still for that read-out and setting: the value for `CCN1CCc2c(-c3ccccc3)cc3c(c2C1)NC(=O)C3=CNCCO` [Compound 4] was less than 25%.
Take `CCN1CCc2c(-c3ccccc3)cc3c(c2C1)NC(=O)C3=CN` [Compound 5]: the inhibition at 50 µM at hASIC1a [1] (setting [4]) was more than 50%. For the same compound, the IC50 on hASIC1a [1] (three point dose-response, acid-induced hASIC1a currents in Xenopus laevis oocytes (FIG. 1A), read-out: IC50, half maximal inhibition of the acid-evoked response in hASIC1a) came out at 10 µM; on hASIC1a [2] it was 15 µM. Moreover, in experiment [3] (75 mg/kg s.c., given 30 min prior to carrageenan, 2-4 hours post-carrageenan, versus control paw level), the “effect on thermal hyperalgesia” value was “completely reversed”. This compound also came in with a 50% effective dose (ED50) in experiment [3] (Rattus norvegicus, sc, 30 min prior to carrageenan, tested 2, 3 and 4 h post carrageenan) of approximately 50 mg/kg.
As for `CCN1CCc2c(-c3ccccc3)cc3c(N)n[nH]c3c2C1` [Compound 6], at hASIC1a [1] (setting [5]), the half-maximal inhibitory concentration (IC50) is more than 50 µM.
Still for that read-out and setting: the value for `CCN1CCc2c(-c3cc(F)ccc3OC)cc3cc[nH]c3c2C1` [Compound 7] was more than 50 µM; that for `CCN1CCc2c(-c3cc(F)ccc3OC)cc3c(C=O)c[nH]c3c2C1` [Compound 8] was more than 50 µM.
For the compound `CCN1CCc2c(-c3ccccc3)cc3cc[nH]c3c2C1` [Compound 9], the IC50 at hASIC1a [1] (setting [5]) is more than 50 µM.
The same measure, in the same setting: the value for `CCN1CCc2c(-c3ccccc3)cc3c(C=O)c[nH]c3c2C1` [Compound 10] was more than 50 µM; that for `CCN1CCc2c(-c3ccccc3)cc3c(C(N)=O)c[nH]c3c2C1` [Compound 11] was more than 50 µM.

(Values after US20080004306A1, “Compositions and methods for modulating gated ion channels” (PainCeptor Pharma Corporation, priority 2006, published 2008).)
